Results reported in PubChem BioAssay AID1259407 (Chemical Carcinogenesis Research Information System (CCRIS), 2018).
Activity calls are given as the source filed them. The rule behind the calls is not given here.

System: CCRIS mutagenicity, Ames/micronucleus/aberration tests
Assay: CCRIS mutagenicity studies
[1] = Test System: AMES SALMONELLA TYPHIMURIUM, Strain/Indicator: TA98, Metabolic Activation: NONE, Method: PREINCUBATION
[2] = Test System: AMES SALMONELLA TYPHIMURIUM, Strain/Indicator: TA100, Metabolic Activation: NONE, Method: PREINCUBATION
[3] = Test System: AMES SALMONELLA TYPHIMURIUM, Strain/Indicator: TA1537, Metabolic Activation: NONE, Method: PREINCUBATION
[4] = Test System: AMES SALMONELLA TYPHIMURIUM, Strain/Indicator: TA100, Metabolic Activation: NONE, Method: STANDARD PLATE
[5] = Test System: AMES SALMONELLA TYPHIMURIUM, Strain/Indicator: TA1535, Metabolic Activation: NONE, Method: STANDARD PLATE
[6] = Test System: AMES SALMONELLA TYPHIMURIUM, Strain/Indicator: TA98, Metabolic Activation: NONE, Method: STANDARD PLATE

In the case of `CCc1ccccc1[N+](=O)[O-]`, the mutagenic call [1] is reported as “inactive; negative”, the mutagenic call (Test System: AMES SALMONELLA TYPHIMURIUM, Strain/Indicator: TA98, Metabolic Activation: RAT, LIVER, S-9, KANECHLOR 500, Method: PREINCUBATION) is reported as “inactive; negative” and the mutagenic call [2] is reported as “inactive; negative”. For the same compound, the mutagenic call (Test System: AMES SALMONELLA TYPHIMURIUM, Strain/Indicator: TA100, Metabolic Activation: RAT, LIVER, S-9, KANECHLOR 500, Method: PREINCUBATION) was “inactive; negative”.
With `Cc1ccc2nc3c4c(ccc3c(CO)c2c1)[C@H](O)[C@@H](O)C=C4` the mutagenic call (Test System: AMES SALMONELLA TYPHIMURIUM, Strain/Indicator: TA100, Metabolic Activation: RAT, LIVER, S-9, AROCLOR 1254, Method: STANDARD PLATE) was “active; positive”.
For `Oc1c(Br)c(Br)c(Br)c(Br)c1Br`, the mutagenic call (Test System: AMES SALMONELLA TYPHIMURIUM, Strain/Indicator: TA98, Metabolic Activation: HAMSTER, LIVER, S-9, AROCLOR 1254 (10%), Method: PREINCUBATION) was “inactive; negative”, the mutagenic call [1] was “inactive; negative” and the mutagenic call (Test System: AMES SALMONELLA TYPHIMURIUM, Strain/Indicator: TA98, Metabolic Activation: RAT, LIVER, S-9, AROCLOR 1254 (10%), Method: PREINCUBATION) was “inactive; negative”. For the same compound, the mutagenic call (Test System: AMES SALMONELLA TYPHIMURIUM, Strain/Indicator: TA100, Metabolic Activation: HAMSTER, LIVER, S-9, AROCLOR 1254 (10%), Method: PREINCUBATION) was “inactive; negative”, the mutagenic call [2] was “inactive; negative” and the mutagenic call (Test System: AMES SALMONELLA TYPHIMURIUM, Strain/Indicator: TA100, Metabolic Activation: RAT, LIVER, S-9, AROCLOR 1254 (10%), Method: PREINCUBATION) was “inactive; negative”. For the same compound, the mutagenic call (Test System: AMES SALMONELLA TYPHIMURIUM, Strain/Indicator: TA1535, Metabolic Activation: HAMSTER, LIVER, S-9, AROCLOR 1254 (10%), Method: PREINCUBATION) was “inactive; negative”, the mutagenic call (Test System: AMES SALMONELLA TYPHIMURIUM, Strain/Indicator: TA1535, Metabolic Activation: NONE, Method: PREINCUBATION) was “inactive; negative” and the mutagenic call (Test System: AMES SALMONELLA TYPHIMURIUM, Strain/Indicator: TA1535, Metabolic Activation: RAT, LIVER, S-9, AROCLOR 1254 (10%), Method: PREINCUBATION) was “inactive; negative”. The mutagenic call (Test System: AMES SALMONELLA TYPHIMURIUM, Strain/Indicator: TA1537, Metabolic Activation: HAMSTER, LIVER, S-9, AROCLOR 1254 (10%), Method: PREINCUBATION) was “inactive; negative”, the mutagenic call [3] was “inactive; negative” and the mutagenic call (Test System: AMES SALMONELLA TYPHIMURIUM, Strain/Indicator: TA1537, Metabolic Activation: RAT, LIVER, S-9, AROCLOR 1254 (10%), Method: PREINCUBATION) was “inactive; negative”.
For `OC(c1ccc(Cl)cc1)(c1ccc(Cl)cc1)C(Cl)(Cl)Cl`, the mutagenic call (End Point: IN VITRO CHROMOSOMAL ABERRATIONS, Test System: CHINESE HAMSTER OVARY CELLS, Metabolic Activation: NONE) was “inactive; negative”, the mutagenic call (End Point: IN VITRO CHROMOSOMAL ABERRATIONS, Test System: CHINESE HAMSTER OVARY CELLS, Metabolic Activation: RAT, LIVER, S-9, AROCLOR 1254) was “inactive; negative” and the mutagenic call (End Point: IN VIVO MICRONUCLEUS, Test System: BONE MARROW POLYCHROMATIC ERYTHROCYTES, Species: MOUSE, Strain/Sex: SWISS/MALE, FEMALE, Route: IP 2X IN AQUEOUS SUSPENSION WITHIN 24 HR) was “inactive; negative”.
In the case of `C1O[C@@H]1[C@H]1CO1`, the mutagenic call (End Point: IN VITRO CHROMOSOMAL ABERRATIONS, Test System: HUMAN PERIPHERAL LYMPHOCYTES, Metabolic Activation: NONE, Method: FISH (CHROMOSOME PAINTING)) is reported as “active; positive (structural changes)”, the mutagenic call (End Point: IN VIVO MICRONUCLEUS, Test System: PERIPHERAL BLOOD RETICULOCYTES, Species: MOUSE, Strain/Sex: BALB/C/MALE, Route: IP INJECTION, ONCE) is reported as “inactive; positive (d 1 -2); positive at both dose levels on d 2 (negative by d 3)” and the mutagenic call (End Point: IN VIVO MICRONUCLEUS, Test System: SPERMATID, Species: RAT, Strain/Sex: SPRAGUE-DAWLEY/MALE, Route: IP INJECTION) is reported as “active; positive”. For the same compound, the mutagenic call (End Point: IN VIVO MICRONUCLEUS, Test System: SPERMATIDS, Species: MOUSE, Strain/Sex: (102XC3H)F1/MALE, Route: IP INJECTION) was “active; positive (at 30 mg at 3 d after exposure)”, the mutagenic call (End Point: IN VIVO MICRONUCLEUS, Test System: SPERMATIDS, Species: MOUSE, Strain/Sex: BALB/C/MALE, Route: IP INJECTION) was “active; positive” and the mutagenic call (End Point: IN VIVO MICRONUCLEUS, Test System: SPERMATIDS, Species: RAT, Strain/Sex: LEWIS/MALE, Route: IP INJECTION) was “active; positive”. The mutagenic call (End Point: IN VIVO MICRONUCLEUS, Test System: SPLENOCYTES, Species: MOUSE, Strain/Sex: (102XC3H)F1/MALE, Route: IP INJECTION) was “active; positive”, the mutagenic call (End Point: IN VIVO MICRONUCLEUS, Test System: SPLENOCYTES, Species: RAT, Strain/Sex: LEWIS/MALE, Route: IP INJECTION) was “active; positive” and the mutagenic call [4] was “active; positive”. The mutagenic call [5] was “active; positive”, the mutagenic call (Test System: CHINESE HAMSTER OVARY, Strain/Indicator: AS52/6-THIOGUANINE, Metabolic Activation: NONE) was “active; positive” and the mutagenic call (Test System: MOUSE LYMPHOMA, Strain/Indicator: L5178Y (TK+/TK-), Metabolic Activation: NONE, Method: SUSPENSION/PLATE) was “active; positive”. For the same compound, the mutagenic call (Test System: MOUSE LYMPHOMA, Strain/Indicator: L5178Y (TK+/TK-), Metabolic Activation: RAT, LIVER, S-9, AROCLOR 1254, Method: SUSPENSION/PLATE) was “active; positive”, the mutagenic call (Test System: MOUSE LYMPHOMA, Strain/Indicator: L5178Y (TK+/TK-), Metabolic Activation: RAT, LIVER, S-9, Method: SUSPENSION/PLATE) was “active; positive” and the mutagenic call (Test System: UDS MOUSE SPERM CELLS, Strain/Indicator: THY INCORP, Metabolic Activation: IN VIVO, Method: LIQUID SCINTILLATION COUNTING) was “active; positive”.
`C#Cc1ccc2c3c(cccc13)-c1ccccc1-2` was tested, and the mutagenic call [6] was “active; positive” and the mutagenic call (Test System: AMES SALMONELLA TYPHIMURIUM, Strain/Indicator: TA98, Metabolic Activation: RAT, LIVER, S-9, AROCLOR 1254 (2%), Method: STANDARD PLATE) was “active; positive”.
With `Nc1cc([N+](=O)[O-])cc([N+](=O)[O-])c1CO` the mutagenic call (End Point: In vitro chromosomal aberrations, Test System: V79 Chinese hamster fibroblasts, Metabolic Activation: None) was “inactive; negative”, the mutagenic call (Test System: Ames Salmonella typhimurium, Strain/Indicator: TA98, Metabolic Activation: None, Method: Standard plate) was “active; positive” and the mutagenic call (Test System: Ames Salmonella typhimurium, Strain/Indicator: TA98, Metabolic Activation: Rat, Liver, S-9, Method: Standard plate) was “active; positive”. The mutagenic call (Test System: Ames Salmonella typhimurium, Strain/Indicator: TA98NR, Metabolic Activation: None, Method: Standard plate) was “active; positive”, the mutagenic call (Test System: Ames Salmonella typhimurium, Strain/Indicator: TA100, Metabolic Activation: None, Method: Standard plate) was “active; positive” and the mutagenic call (Test System: Ames Salmonella typhimurium, Strain/Indicator: TA100, Metabolic Activation: Rat, Liver, S-9, Method: Standard plate) was “active; positive”.
In the case of `BrCCCCCBr`, the mutagenic call [1] is reported as “inactive; negative”, the mutagenic call (Test System: AMES SALMONELLA TYPHIMURIUM, Strain/Indicator: TA98, Metabolic Activation: RAT LIVER S-9, PHENOBARBITAL AND BETA-NAPHTHOFLAVONE, Method: PREINCUBATION) is reported as “inactive; negative” and the mutagenic call [2] is reported as “inactive; negative”. For the same compound, the mutagenic call (Test System: AMES SALMONELLA TYPHIMURIUM, Strain/Indicator: TA100, Metabolic Activation: RAT LIVER S-9, PHENOBARBITAL AND BETA-NAPHTHOFLAVONE, Method: PREINCUBATION) was “inactive; negative”, the mutagenic call [3] was “inactive; negative” and the mutagenic call (Test System: AMES SALMONELLA TYPHIMURIUM, Strain/Indicator: TA1537, Metabolic Activation: RAT LIVER S-9, PHENOBARBITAL AND BETA-NAPHTHOFLAVONE, Method: PREINCUBATION) was “inactive; negative”.
In the case of `Cc1cn2c(N=O)c(-c3ccc([N+](=O)[O-])cc3)nc2s1`, the mutagenic call [6] is reported as “active; positive”, the mutagenic call [4] is reported as “active; positive” and the mutagenic call [5] is reported as “inactive; negative”. The mutagenic call (Test System: AMES SALMONELLA TYPHIMURIUM, Strain/Indicator: TA1537, Metabolic Activation: NONE, Method: STANDARD PLATE) was “inactive; negative” and the mutagenic call (Test System: AMES SALMONELLA TYPHIMURIUM, Strain/Indicator: TA1538, Metabolic Activation: NONE, Method: STANDARD PLATE) was “active; positive”.
